Experiments:
[1] = Volume of hair switches by image analysis after soaking and combing, no heat treatment (Example 3); conditions: 30 min soak; for volume of treated hair switches: combed straight, dried; for % benefit: water as control
Text: Control switches were soaked in water.
When dry the switches were combed straight and pictures taken.

[2] = Volume of hair switches by image analysis after soaking, ironing at 200° C. and washing (Example 1)
Protocol: Dark brown wavy #6 European hair switches were soaked for 30 minutes in solutions of 2% glyceraldehyde at its natural or spontaneous pH.
All switches were combed straight and were dried in drying cabinets. When dry the switches were ironed with 7 passes using straighteners at 200° C.
The switches were subsequently washed after 3 days with base shampoo and combed straight and dried in drying cabinets.
When dry the switches were combed and pictures taken. The volumes of the switches were measured using an image analysis kit.
If the switches are visually straight then the volume of the switches (actually the projection of the volume in mm^2 on to an image plane) is a measure of the straightness benefits of the treatment.

SMILES | volume of treated hair switches [1] | % benefit [1] | % benefit after ironing + 1 wash ([2]; 2% glyceraldehyde solution, 30 min soak, 7 iron passes at 200° C., 1 wash, versus control) | % benefit after ironing + 2 washes ([2]; 2% glyceraldehyde solution, 30 min soak, 7 iron passes at 200° C., 2 washes, versus control) | Volume of treated hair switches after ironing + 2 washes ([2]; 2% glyceraldehyde solution, 30 min soak, 7 iron passes at 200° C., 3 day gap between washings) | Volume of treated hair switches after ironing + 1 wash ([2]; 2% glyceraldehyde solution, 30 min soak, 7 iron passes at 200° C., washed after 3 days with base shampoo) | straightness benefit (in words) ([2]; with heat treatment, after washing)
NCCCC[C@H](N)C(=O)O [2% Lysine, lysine] | 9975 mm^2 | 37.2% |  |  |  |  | 
O=CC(O)CO (stereo not drawn) [Glyceraldehyde, glyceraldehyde] | 12458 mm^2 | 21.6% | 26.4% | 11.3% | 11191.17 mm^2 | 10927.15 mm^2 | durable straightness benefits

— patent US10588839B2, “Method of shaping hair” (Conopco, Inc., priority 2013, dated 2020)
